Measurements taken from patent US8362000B2, “Azetidinyl diamides as monoacylglycerol lipase inhibitors” (Janssen Pharmaceutica NV, priority 2009, dated 2013).
Residue numbers refer to the chain shown, from its start. Like-named read-outs stand apart in the source and are kept apart here.

What was measured:
[1] = target: T1, mutant MGL (Homo sapiens, UniProt Q99685, L169S/L176S); assay: MGL ThermoFluor assay - mutant; type: binding
T1 sequence (Q99685 1-303 L169S/L176S): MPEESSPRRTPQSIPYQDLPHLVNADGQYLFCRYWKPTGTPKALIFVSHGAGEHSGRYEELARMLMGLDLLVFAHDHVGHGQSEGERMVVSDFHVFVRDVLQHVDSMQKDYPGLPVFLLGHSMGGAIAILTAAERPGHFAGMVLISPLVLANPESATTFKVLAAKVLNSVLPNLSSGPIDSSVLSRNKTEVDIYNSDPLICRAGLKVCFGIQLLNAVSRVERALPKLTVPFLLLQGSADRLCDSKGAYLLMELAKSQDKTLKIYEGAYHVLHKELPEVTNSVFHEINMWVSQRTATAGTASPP

[2] = target: T2, purified wild type MGL (wt-MGLL 6H-11-313) (Homo sapiens, UniProt Q99685)
T2 sequence (Q99685 1-303): T1 sequence (Q99685 1-303 L169S/L176S) with S169L, S176L

[3] = ThermoFluor concentration-response, read-out: MGL mutant ThermoFluor Kd
[4] = ThermoFluor, compound concentration measured by qNMR, read-out: MGL mutant ThermoFluor qKd (using qNMR conc.)
[5] = ThermoFluor thermal stability binding assay, read-out: MGL mutant ThermoFluor Kd
[6] = compound concentration measured by qNMR, read-out: MGL mutant ThermoFluor qKd (using qNMR conc.)
[7] = ThermoFluor, compound concentration measured by qNMR, read-out: MGL mutant ThermoFluor qKd (μM) (using qNMR conc.)

Row | SMILES | Kd [1, 3] | IC50 [2] | further results
1 | Cc1nccc(-n2ccc3cc(C(=O)N4CC(N5CCN(C(=O)c6nccs6)CC5)C4)ccc32)n1 [Cpd 1216, 1-(2-Methylpyrimidin-4-yl)-5-({3-[4-(1,3-thiazol-2-ylcarbonyl)piperazin-1-yl]azetidin-1-yl}carbonyl)-1H-indole] | – | 216 nM | Kd [1, 4]: 0.022 µM
2 | Cc1nc2cc(C(=O)N3CC(N4CCN(C(=O)c5nccs5)CC4)C3)ccc2s1 [Cpd 783] | – | 1090 nM | Kd [1, 4]: 0.732 µM
3 | O=C(c1nccs1)N1CCN(C2CN(C(=O)c3nn(-c4ccc(Cl)cc4Cl)c4c3CCC/C4=C\c3ccc(Cl)cc3)C2)CC1 [Cpd 1018] | 0.207 µM | 101 nM | –
4 | O=C(c1cnc2c(ccn2Cc2ccc(F)cc2)c1)N1CC(N2CCN(C(=O)c3nccs3)CC2)C1 [Cpd 1043, 1-(4-Fluorobenzyl)-5-({3-[4-(1,3-thiazol-2-ylcarbonyl)piperazin-1-yl]azetidin-1-yl}carbonyl)-1H-pyrrolo[2,3-b]pyridine] | – | 16 nM | Kd [1, 6]: 0.055 µM
5 | O=C(c1ccc2c(c1)[nH]c(=O)n2-c1ccc(F)cc1)N1CC(N2CCN(C(=O)c3nccs3)CC2)C1 [Cpd 934, 1-(4-Fluorophenyl)-5-({3-[4-(1,3-thiazol-2-ylcarbonyl)piperazin-1-yl]azetidin-1-yl}carbonyl)-1,3-dihydro-2H-benzimidazol-2-one] | 0.025 µM | 174 nM | –
6 | O=C(c1ccc2[nH]c(-c3ccccc3)nc2c1)N1CC(N2CCN(C(=O)c3nccs3)CC2)C1 [Cpd 1194] | 0.1 µM | 118 nM | –
7 | O=C(c1ccc2c(ccn2Cc2ccncc2)c1)N1CC(N2CCN(C(=O)c3nccs3)CC2)C1 [Cpd 1046] | – | 288 nM | Kd [1, 6]: 0.064 µM
8 | O=C(c1ccc(-c2cccc(C(F)(F)F)c2)cc1)N1CC(N2CCN(C(=O)c3ccc(Cl)s3)CC2)C1 [Cpd 1143] | – | 30 nM | Kd [1, 7]: 0.07 µM
9 | Cc1nc2cc(C(=O)N3CC(N4CCN(C(=O)c5cscn5)CC4)C3)ccc2n1C1CCCCC1 [Cpd 832] | – | 4240 nM | Kd [1, 5]: 0.059 µM
10 | CCCCCCCCCCCCCCCCCCCC(=O)N1CC(N2CCN(C(=O)c3nccs3)CC2)C1 [Cpd 640] | 25 µM | 15900 nM | –
11 | CN(C(=O)Cn1ccc2cc(C(=O)N3CC(N4CCN(C(=O)c5nccs5)CC4)C3)ccc21)c1ccccc1 [Cpd 1031] | – | 111 nM | Kd [1, 6]: 0.134 µM
12 | O=C(c1ccc(COCC(F)(F)F)cc1)N1CC(N2CCN(C(=O)c3nccs3)CC2)C1 [Cpd 694] | – | 47 nM | Kd [1, 4]: 0.048 µM
13 | O=C(c1ccc2nn(-c3cccc(OC(F)(F)F)c3)cc2c1)N1CC(N2CCN(C(=O)c3nccs3)CC2)C1 [Cpd 1376] | – | < 5 nM | Kd [1, 7]: 0.013 µM
14 | O=C(c1ccc2c(ccn2-c2ccc(Cl)c(F)c2)c1)N1CC(N2CCN(C(=O)c3nccs3)CC2)C1 [Cpd 1372] | – | < 5 nM | Kd [1, 7]: 0.002 µM
15 | Cc1nn(-c2cccc(C(F)(F)F)c2)c2sc(C(=O)N3CC(N4CCN(C(=O)c5nccs5)CC4)C3)cc12 [Cpd 1146] | – | 32 nM | Kd [1, 4]: 0.08 µM
16 | CC(=O)N1CC[C@@H](c2ccccc2C(=O)N2CC(N3CCN(C(=O)c4ccccc4)CC3)C2)C1 [Cpd 1486] | – | > 16700 nM | Kd [1, 5]: > 31.2 µM
17 | Cc1nn(-c2ccc(F)cc2)c2ncc(C(=O)N3CC(N4CCN(C(=O)c5nccs5)CC4)C3)cc12 [Cpd 1203] | – | 153 nM | Kd [1, 4]: 0.015 µM
18 | Cc1c(C(=O)N2CC(N3CCN(C(=O)c4ccc[nH]4)CC3)C2)nc2ccc(Br)cn12 [Cpd 825] | – | 3150 nM | Kd [1, 4]: 4.86 µM
19 | O=C(c1cc2cc(Br)cnc2o1)N1CC(N2CCN(C(=O)c3nccs3)CC2)C1 [Cpd 864] | 2.41 µM | 10200 nM | –
20 | O=C(c1ccc2c(c1)[nH]c(=O)n2CCC(F)(F)F)N1CC(N2CCN(C(=O)c3cscn3)CC2)C1 [Cpd 944] | 0.802 µM | 7320 nM | –
21 | O=C(c1cc2cc(-c3ccccc3)cnc2o1)N1CC(N2CCN(C(=O)c3nccs3)CC2)C1 [Cpd 1209] | – | 193 nM | Kd [1, 7]: 0.942 µM
22 | O=C(c1ccccc1)N1CCN(C2CN(C(=O)c3sc4cc(C(F)(F)F)ccc4c3C3CC3)C2)CC1 [Cpd 515] | – | 455 nM | Kd [1, 5]: 0.011 µM
23 | CCCCC/C=C\C/C=C\C/C=C\C/C=C\CCCC(=O)N1CC(N2CCN(C(=O)c3nccs3)CC2)C1 [Cpd 639] | 0.132 µM | 419 nM | –

Continued, in another order:

Row | Kd [1, 3] | IC50 [2] | SMILES | further results
24 | 0.009 µM | 371 nM | O=C(c1ccccc1)N1CCN(C2CN(C(=O)c3sc4cc(F)ccc4c3C3CCC3)C2)CC1 [Cpd 513] | –
25 | 0.002 µM | 13 nM | O=C(c1ccc2c(c1)CCN2Cc1ccccc1)N1CC(N2CCN(C(=O)c3nccs3)CC2)C1 [Cpd 994, 1-Benzyl-5-({3-[4-(1,3-thiazol-2-ylcarbonyl)piperazin-1-yl]azetidin-1-yl}carbonyl)-2,3-dihydro-1H-indole] | –
26 | – | 1030 nM | O=C(c1ccccc1)N1CCN(C2CN(C(=O)c3ccc4nc(-c5cccc(F)c5)sc4c3)C2)CC1 [Cpd 599] | Kd [1, 5]: 0.481 µM
27 | – | 282 nM | O=C(c1nccs1)N1CCN(C2CN(C(=O)c3cn(-c4cccc(F)c4)c4ccccc34)C2)CC1 [Cpd 1226] | Kd [1, 7]: 0.193 µM
28 | – | 4600 nM | O=C(c1ccc2c(c1)ncn2C1CCC(F)(F)CC1)N1CC(N2CCN(C(=O)c3cscn3)CC2)C1 [Cpd 834] | Kd [1, 6]: 0.234 µM
29 | 2.11 µM | 1470 nM | Cc1c(C(=O)N2CC(N3CCN(C(=O)c4nccs4)CC3)C2)oc2c(F)cccc12 [Cpd 794] | –
30 | – | 9 nM | O=C(c1ccc(-c2cccc(C(F)(F)F)c2)cc1)N1CC(N2CCN(C(=O)c3ncco3)CC2)C1 [Cpd 1085] | Kd [1, 7]: 0.008 µM
31 | – | 1630 nM | Cc1nc2cc(C(=O)N3CC(N4CCN(C(=O)c5nccs5)CC4)C3)ccc2n1C1CCC(F)(F)CC1 [Cpd 798] | Kd [1, 6]: 0.004 µM
32 | 2.13 µM | 5530 nM | O=C(c1ccc(N2CCS(=O)(=O)CC2)cc1)N1CC(N2CCN(C(=O)c3nccs3)CC2)C1 [Cpd 843] | –
33 | – | 978 nM | O=C(c1ccc2c(c1)ncn2CCC(F)(F)F)N1CC(N2CCN(C(=O)c3nccs3)CC2)C1 [Cpd 780] | Kd [1, 6]: 0.128 µM
34 | – | 206 nM | O=C(c1cc2cc(-c3ccc(F)cc3)cnc2o1)N1CC(N2CCN(C(=O)c3nccs3)CC2)C1 [Cpd 1213] | Kd [1, 7]: 0.765 µM
35 | 0.474 µM | 3850 nM | O=C(c1ccc(-n2cnc3ccccc32)cc1)N1CCN(C2CN(C(=O)c3nccs3)C2)CC1 [Cpd 1298] | –
36 | 3.33 µM | 8720 nM | COc1cccc2c(C)c(C(=O)N3CCN(C4CN(C(=O)c5cscn5)C4)CC3)[nH]c12 [Cpd 857] | –
37 | – | 1460 nM | O=C(c1cc2ccc(Br)cc2[nH]1)N1CC(N2CCN(C(=O)c3nccs3)CC2)C1 [Cpd 792] | Kd [1, 4]: 0.973 µM
38 | – | 148 nM | O=C(c1ccc2nc(C(F)(F)F)sc2c1)N1CC(N2CCN(C(=O)c3nccs3)CC2)C1 [Cpd 718] | Kd [1, 5]: 0.072 µM
39 | – | 10300 nM | Cc1nc2cc(C(=O)N3CC(N4CCN(C(=O)c5cscn5)CC4)C3)ccc2n1CCC(F)(F)F [Cpd 866] | Kd [1, 6]: 0.824 µM
40 | – | 10 nM | O=C(c1ccc2c(cnn2CCc2ccc(F)cc2)c1)N1CC(N2CCN(C(=O)c3nccs3)CC2)C1 [Cpd 1049, 1-[2-(4-Fluorophenyl)ethyl]-5-({3-[4-(1,3-thiazol-2-ylcarbonyl)piperazin-1-yl]azetidin-1-yl}carbonyl)-1H-indazole] | Kd [1, 6]: 0.05 µM
41 | 0.083 µM | 635 nM | O=C(c1ccc2[nH]c3c(c2c1)CCCC3)N1CC(N2CCN(C(=O)c3nccs3)CC2)C1 [Cpd 763] | –
42 | – | < 5 nM | Cc1cc(-n2ccc3cc(C(=O)N4CC(N5CCN(C(=O)c6nccs6)CC5)C4)ccc32)ccc1C#N [Cpd 1375, 2-Methyl-4-[5-({3-[4-(1,3-thiazol-2-ylcarbonyl)piperazin-1-yl]azetidin-1-yl}carbonyl)-1H-indol-1-yl]benzonitrile] | Kd [1, 7]: 0.003 µM
43 | 0.241 µM | 605 nM | O=C(c1ccc(-n2ccc(C(F)(F)F)n2)cc1)N1CC(N2CCN(C(=O)c3nccs3)CC2)C1 [Cpd 1249] | –
44 | – | 16 nM | O=C(c1ccc(-c2cccc(C(F)(F)F)c2)cc1)N1CC(N2CCN(C(=O)c3ccno3)CC2)C1 [Cpd 1118] | Kd [1, 7]: 0.053 µM
45 | – | 66 nM | COc1cncc(-c2ccc3[nH]c(C(=O)N4CC(N5CCN(C(=O)c6nccs6)CC5)C4)c(C)c3c2)c1 [Cpd 1175] | Kd [1, 7]: 0.01 µM
46 | 1.43 µM | 8820 nM | O=C(c1ccc2nc(C(F)(F)F)cc(Cl)c2c1)N1CCN(C2CN(C(=O)c3cscn3)C2)CC1 [Cpd 859] | –
47 | 1.26 µM | 256 nM | O=C(c1ccc(Oc2cccnc2)cc1)N1CC(N2CCN(C(=O)c3nccs3)CC2)C1 [Cpd 734] | –
48 | – | 75 nM | O=C(c1ccc2c(ccn2-c2ccc(Cl)cn2)c1)N1CC(N2CCN(C(=O)c3cscn3)CC2)C1 [Cpd 1180, 1-(5-Chloropyridin-2-yl)-5-({3-[4-(1,3-thiazol-4-ylcarbonyl)piperazin-1-yl]azetidin-1-yl}carbonyl)-1H-indole] | Kd [1, 4]: 0.019 µM
